Experimental data: patent publication US20250122225A1, “MASP-2 INHIBITORS AND METHODS OF USE” (Omeros Corporation, priority 2023, published 2025)
Counter-ions that a name gives are not always drawn.

Legend:
MASP-2 (CCP1-CCP2-SP) = molecular target: T1, MASP-2 (CCP1-CCP2-SP) (Homo sapiens, UniProt O00187); assay: Enzymatic assay for MASP-2 inhibitory activity (fluorogenic substrate); format: biochemical
T1 construct: 15 μL of Enzyme MASP-2 (CCP1-CCP2-SP) in Assay Buffer
Procedure, shortened: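 Fluorescence was normalized between no-enzyme and DMSO-only controls to derive % activity, with IC50 taken as equivalent to Ki except for tight-binding inhibitors. Reactions ran 20 min at room temperature in HEPES pH 7.4/NaCl/Tween 20 buffer, using the C2-derived fluorogenic substrate, before acetic acid stop.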

human α-thrombin = molecular target: T2, human α-thrombin (Homo sapiens, UniProt P00734); assay: Enzymatic assay for thrombin (fluorogenic peptide substrate Boc-VPR-AMC); format: biochemical
T2 construct: enzyme (human α-thrombin (BioPharm® Lab.)) in assay buffer; purchased BioPharm® Lab
Procedure, shortened: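 Assay conditions kept the reaction linear in time, enzyme and substrate, so IC50 approximated Ki apart from tight- or slow-binding cases. Boc-VPR-AMC cleavage by human α-thrombin proceeded 20 min at room temperature in Hepes pH 7.4/NaCl/Tween 20 buffer, then was acid-quenched and read by fluorescence.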

T1 sequence (O00187 445-686 limits assumed): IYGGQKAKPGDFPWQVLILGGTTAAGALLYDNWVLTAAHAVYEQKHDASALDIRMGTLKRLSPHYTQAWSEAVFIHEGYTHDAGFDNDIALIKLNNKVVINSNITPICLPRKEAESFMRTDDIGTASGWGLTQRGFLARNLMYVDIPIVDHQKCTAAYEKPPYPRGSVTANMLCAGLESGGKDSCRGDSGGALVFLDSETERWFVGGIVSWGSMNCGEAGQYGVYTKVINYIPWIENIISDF
T1 sequence (O00187 287-444 partner limits assumed): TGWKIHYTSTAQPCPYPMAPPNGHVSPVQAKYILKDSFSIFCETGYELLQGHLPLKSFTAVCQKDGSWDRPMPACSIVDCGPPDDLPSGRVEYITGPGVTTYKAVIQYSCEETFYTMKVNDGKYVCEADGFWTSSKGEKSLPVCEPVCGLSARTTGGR

| Compound | Ki (MASP-2 (CCP1-CCP2-SP)) | Ki (human α-thrombin) |
| --- | --- | --- |
| Cc1cc(C)cc(CNc2ncc3n(c2=O)[C@H](C(=O)NCc2ccncc2)CC3)c1 [Compound 86, (S)-3-((3,5-dimethylbenzyl)amino)-4-oxo-N-(pyridin-4-ylmethyl)-4,6,7,8-tetrahydropyrrolo[1,2-a]pyrazine-6-carboxamide] | 500 to 2500 nM | > 25000 nM |
| Cc1cc(C)cc(CNc2ncc3n(c2=O)[C@H](C(=O)NCc2cc(Cl)ccc2-n2cnnn2)CC3)c1 [Compound 284, (S)-N-(5-chloro-2-(1H-tetrazol-1-yl)benzyl)-3-((3,5-dimethylbenzyl)amino)-4-oxo-4,6,7,8-tetrahydropyrrolo[1,2-a]pyrazine-6-carboxamide] | < 500 nM | < 500 nM |
| COc1cc(F)cc(CNc2ncc3n(c2=O)[C@H](C(=O)NCc2ccc(N)nc2C)CC3)c1 [Compound 171, (S)-N-((6-amino-2-methylpyridin-3-yl)methyl)-3-((3-fluoro-5-methoxybenzyl)amino)-4-oxo-4,6,7,8-tetrahydropyrrolo[1,2-a]pyrazine-6-carboxamide trifluoroacetate] | < 500 nM | < 500 nM |
| C[C@@H](NC(=O)[C@@H]1CCc2cnc(N[C@@H](c3ccccc3)C(C)(C)C)c(=O)n21)c1cc2c(s1)CNC2 [Compound 269, (S)-N-((R)-1-(5,6-dihydro-4H-thieno[2,3-c]pyrrol-2-yl)ethyl)-3-(((R)-2,2-dimethyl-1-phenylpropyl)amino)-4-oxo-4,6,7,8-tetrahydropyrrolo[1,2-a]pyrazine-6-carboxamide trifluoroacetate] | < 500 nM | 2500 to 10000 nM |
| CC[C@@H](Nc1ncc2n(c1=O)[C@H](C(=O)NCc1cc3c(s1)CNC3)CC2)c1ccccc1C [Compound 265, (S)-N-((5,6-dihydro-4H-thieno[2,3-c]pyrrol-2-yl)methyl)-4-oxo-3-(((R)-1-(o-tolyl)propyl)amino)-4,6,7,8-tetrahydropyrrolo[1,2-a]pyrazine-6-carboxamide trifluoroacetate] | < 500 nM | < 500 nM |
| Cc1cc(C)cc(CNc2ncc3n(c2=O)[C@H](C(=O)N[C@H](C)c2ccc(N)nc2C)CC3)c1 [Compound 238] | < 500 nM | 500 to 2500 nM |
| NCc1ccc(CNC(=O)[C@@H]2CCc3c(Cl)nc(NCc4ccc5c(c4)CCCC5)c(=O)n32)s1 [Compound 225, (S)—N-((5-(aminomethyl)thiophen-2-yl)methyl)-1-chloro-4-oxo-3-(((5,6,7,8-tetrahydronaphthalen-2-yl)methyl)amino)-4,6,7,8-tetrahydropyrrolo[1,2-a]pyrazine-6-carboxamide trifluoroacetate] | < 500 nM | > 25000 nM |
| N#Cc1nc(NCc2ccccc2)c(=O)n2c1CC[C@H]2C(=O)NCc1cc2cnccc2[nH]1 [Compound 121, (S)—N-((1H-pyrrolo[3,2-c]pyridin-2-yl)methyl)-3-(benzylamino)-1-cyano-4-oxo-4,6,7,8-tetrahydropyrrolo[1,2-a]pyrazine-6-carboxamide trifluoroacetate] | < 500 nM | 10000 to 25000 nM |
| Cc1cc(F)cc(CNc2ncc3n(c2=O)[C@H](C(=O)NCc2cccc(Cl)c2)CC3)c1 [Compound 180] | 500 to 2500 nM | 2500 to 10000 nM |
| Cc1cc(C)cc(CNc2ncc3n(c2=O)[C@H](C(=O)NC(C)c2cc4cnccc4[nH]2)CC3)c1 (stereo partly drawn) [Compound 43, (6S)-N-(1-(1H-pyrrolo[3,2-c]pyridin-2-yl)ethyl)-3-((3,5-dimethylbenzyl)amino)-4-oxo-4,6,7,8-tetrahydropyrrolo[1,2-a]pyrazine-6-carboxamide trifluoroacetate] | < 500 nM | > 25000 nM |
| Cc1cc(C)cc(CNc2ncc3n(c2=O)[C@H](C(=O)NCc2ccc(N)nc2C)CC32CC2)c1 [Compound 122, (S)—N-((6-amino-2-methylpyridin-3-yl)methyl)-3′-((3,5-dimethylbenzyl)amino)-4′-oxo-6′,7′-dihydro-4′H-spiro[cyclopropane-1,8′-pyrrolo[1,2-a]pyrazine]-6′-carboxamide trifluoroacetate] | < 500 nM | < 500 nM |
| O=C(NCc1cc2cnccc2[nH]1)[C@@H]1CCc2cnc(NCC3CCCCC3)c(=O)n21 [Compound 113, (S)-N-((1H-pyrrolo[3,2-c]pyridin-2-yl)methyl)-3-((cyclohexylmethyl)amino)-4-oxo-4,6,7,8-tetrahydropyrrolo[1,2-alpyrazine-6-carboxamide trifluoroacetate] | < 500 nM | 2500 to 10000 nM |
| Cc1nc(N)ccc1CNC(=O)[C@@H]1CCc2cnc(NCc3cnn(-c4ccccc4)c3)c(=O)n21 [Compound 166, (S)—N-((6-amino-2-methylpyridin-3-yl)methyl)-4-oxo-3-(((1-phenyl-1h-pyrazol-4-yl)methyl)amino)-4,6,7,8-tetrahydropyrrolo[1,2-a]pyrazine-6-carboxamide trifluoroacetate] | < 500 nM | 500 to 2500 nM |
| CC[C@H]1C[C@@H](C(=O)NCc2cc3cnccc3[nH]2)n2c1cnc(NCc1ccccc1)c2=O [Compound 151, (6S,8S)—N-((1H-pyrrolo[3,2-c]pyridin-2-yl)methyl)-3-(benzylamino)-8-ethyl-4-oxo-4,6,7,8-tetrahydropyrrolo[1,2-a]pyrazine-6-carboxamide] | < 500 nM | 500 to 2500 nM |
| Cc1cccc(C2(Nc3ncc4n(c3=O)[C@H](C(=O)NCc3cc5cnccc5[nH]3)CC4)CC2)c1 [Compound 111, (S)—N-((1H-pyrrolo[3,2-c]pyridin-2-yl)methyl)-4-oxo-3-((1-(m-tolyl)cyclopropyl)amino)-4,6,7,8-tetrahydropyrrolo[1,2-a]pyrazine-6-carboxamide trifluoroacetate] | < 500 nM | 2500 to 10000 nM |
| Cc1ccc(CNc2ncc3n(c2=O)[C@H](C(=O)NCc2ccc(N)nc2C)CC3)cc1C [Compound 38, (S)-N-((6-amino-2-methylpyridin-3-yl)methyl)-3-((3,4-dimethylbenzyl)amino)-4-oxo-4,6,7,8-tetrahydropyrrolo[1,2-a]pyrazine-6-carboxamide] | < 500 nM | < 500 nM |
| Cc1cc(F)c(F)c(CNc2ncc3n(c2=O)[C@H](C(=O)N[C@H](C)c2ccc(N)nc2)CC3)c1 [Compound 224, (S)—N—((R)-1-(6-aminopyridin-3-yl)ethyl)-3-((2,3-difluoro-5-methylbenzyl)amino)-4-oxo-4,6,7,8-tetrahydropyrrolo[1,2-a]pyrazine-6-carboxamide trifluoroacetate] | < 500 nM | 2500 to 10000 nM |
| COc1cc(C)cc(CNc2ncc3n(c2=O)[C@H](C(=O)NCc2ccc(N)nc2C)C[C@@H]3Cc2ccccc2)c1 [Compound 138, (6S,8S)-N-((6-amino-2-methylpyridin-3-yl)methyl)-8-benzyl-3-((3-methoxy-5-methylbenzyl)amino)-4-oxo-4,6,7,8-tetrahydropyrrolo[1,2-a]pyrazine-6-carboxamide] | < 500 nM | < 500 nM |
| Cc1cccc([C@H](C)Nc2ncc3n(c2=O)[C@H](C(=O)NCc2cc4c(s2)CNC4)CC3)c1 [Compound 95, (S)-N-((5,6-dihydro-4H-thieno[2,3-c]pyrrol-2-yl)methyl)-4-oxo-3-(((S)-1-(m-tolyl)ethyl)amino)-4,6,7,8-tetrahydropyrrolo[1,2-a]pyrazine-6-carboxamide] | < 500 nM | 500 to 2500 nM |
| COc1cc(C)cc(CNc2ncc3n(c2=O)[C@H](C(=O)NCc2cc4c(s2)CNC4)CC3)c1 [Compound 91, (S)-N-((5,6-dihydro-4H-thieno[2,3-c]pyrrol-2-yl)methyl)-3-((3-methoxy-5-methylbenzyl)amino)-4-oxo-4,6,7,8-tetrahydropyrrolo[1,2-a]pyrazine-6-carboxamide] | < 500 nM | < 500 nM |
| Cc1cc(F)cc(CNc2nc(C3CCCCC3)c3n(c2=O)[C@H](C(=O)NCc2cc4cnccc4[nH]2)CC3)c1 [Compound 177, trifluoroacetate] | < 500 nM | > 25000 nM |
| Cc1nc(N)ccc1CNC(=O)[C@@H]1CCc2c(Cl)nc(NCc3cccc(CO)c3)c(=O)n21 [Compound 5, (S)-N-((6-amino-2-methylpyridin-3-yl)methyl)-1-chloro-3-((3-(hydroxymethyl)benzyl)amino)-4-oxo-4,6,7,8-tetrahydropyrrolo[1,2-a]pyrazine-6-carboxamide] | < 500 nM | 500 to 2500 nM |
| Cc1cc(F)cc(CNc2ncc3n(c2=O)[C@H](C(=O)NCc2ccc(N)c(F)c2)CC3)c1 [Compound 184, (S)-N-(4-amino-3-fluorobenzyl)-3-((3-fluoro-5-methylbenzyl)amino)-4-oxo-4,6,7,8-tetrahydropyrrolo[1,2-a]pyrazine-6-carboxamide] | 500 to 2500 nM | 500 to 2500 nM |
| Cc1cc(C)cc(CNc2nc(Cl)c3n(c2=O)[C@H](C(=O)NCc2cc4cnccc4[nH]2)C[C@@H]3C)c1 [Compound 132, (6S,8S)-N-((1H-pyrrolo[3,2-c]pyridin-2-yl)methyl)-1-chloro-3-((3,5-dimethylbenzyl)amino)-8-methyl-4-oxo-4,6,7,8-tetrahydropyrrolo[1,2-a]pyrazine-6-carboxamide] | < 500 nM | > 25000 nM |
| O=C(NCc1cc2c(s1)CNC2)[C@@H]1CCc2c(Cl)nc(NCc3cccc(C(F)F)c3)c(=O)n21 [Compound 34, (S)-1-chloro-3-((3-(difluoromethyl)benzyl)amino)-N-((5,6-dihydro-4H-thieno[2,3-c]pyrrol-2-yl)methyl)-4-oxo-4,6,7,8-tetrahydropyrrolo[1,2-a]pyrazine-6-carboxamide] | < 500 nM | 2500 to 10000 nM |
